The target of the assay is T1, human mAChR M1 (Homo sapiens, UniProt P11229).
T1 sequence (P11229 1-460): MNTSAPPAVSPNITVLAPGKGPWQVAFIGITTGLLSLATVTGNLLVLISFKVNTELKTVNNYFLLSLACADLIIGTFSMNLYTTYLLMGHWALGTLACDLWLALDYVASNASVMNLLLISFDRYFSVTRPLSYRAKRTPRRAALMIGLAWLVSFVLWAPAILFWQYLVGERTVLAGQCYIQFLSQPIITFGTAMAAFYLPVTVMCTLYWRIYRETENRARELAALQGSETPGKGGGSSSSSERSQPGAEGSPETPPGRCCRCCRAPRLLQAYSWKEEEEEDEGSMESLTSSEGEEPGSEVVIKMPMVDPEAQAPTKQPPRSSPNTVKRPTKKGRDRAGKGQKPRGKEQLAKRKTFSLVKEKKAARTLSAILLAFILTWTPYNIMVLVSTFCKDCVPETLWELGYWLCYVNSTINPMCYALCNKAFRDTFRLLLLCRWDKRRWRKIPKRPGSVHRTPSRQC
The assay can be described thus: mAChR M1 cell-based functional assay: calcium mobilization, positive allosteric modulator mode (increase in EC20 acetylcholine response). Particulars: for EC50: read-out: Human M1 EC50; for Emax: read-out: Human M1 Emax (%). A digest of the protocol: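 Calcium-flux assay in CHO-K1 cells stably expressing human M1, loaded with Fluo-4 AM (50 min, 37 °C) and read at 1 Hz. Compound (11-point, 1:3 series) was added at 4 s, EC20 acetylcholine at 144 s and EC80 at 230 s. PAM activity is the concentration-dependent rise in the EC20 response, fitted with a four-parameter logistic.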

Each structure is given as a SMILES string. Like-named read-outs stand apart in the source and are kept apart here.

On to `O=C(N[C@@H]1CCOC1)c1cc(Cc2ccc(-c3cscn3)cc2)c2sccc2n1` [Compound 207, N-[(3R)-tetrahydrofuran-3-yl]-7-[(4-thiazol-4-ylphenyl)methyl]thieno[3,2-b]pyridine-5-carboxamide], for which, where the note is “Table 2, human M1”, the 50% effective concentration (EC50) worked out at 2970 nM and the Emax came to 77%.

Regarding `Cc1csc2c(Cc3ccc(-n4cccn4)cc3)cc(C(=O)N[C@H]3CCOC[C@@H]3O)nc12` [Compound 269, N-[(3R,4S)-3-hydroxytetrahydropyran-4-yl]-3-methyl-7-[(4-pyrazol-1-ylphenyl)methyl]thieno[3,2-b]pyridine-5-carboxamide], for the setting “Table 2, human M1”, the EC50 is 23.4 nM and the Emax amounted to 77.6%.

Take `CC1COCCC1NC(=O)c1cc(Cc2ccc(-c3nccs3)cc2)c2sccc2n1` (stereo not drawn) [Compound 370, N-(3-methyltetrahydropyran-4-yl)-7-[(4-thiazol-2-ylphenyl)methyl]thieno[3,2-b]pyridine-5-carboxamide]: where the note is “Table 2, human M1”, the EC50 is 400 nM and the Emax was 77.7%.

As to `O=C(NCC1CCN1)c1cc(Cc2ccc(-n3cccn3)cc2)c2sccc2n1` (stereo not drawn) [Compound 292, N-(azetidin-2-ylmethyl)-7-[(4-pyrazol-1-ylphenyl)methyl]thieno[3,2-b]pyridine-5-carboxamide], under “Table 2, human M1”, the EC50 was found to be 225 nM and the Emax is 81.8%.

For `Cc1csc2c(Cc3ccc(-n4cccn4)cc3)cc(C(=O)NC[C@@H]3CCCO3)nc12` [Compound 323, 3-methyl-7-[(4-pyrazol-1-ylphenyl)methyl]-N-[[(2S)-tetrahydrofuran-2-yl]methyl]thieno[3,2-b]pyridine-5-carboxamide], for the setting “Table 2, human M1”, the EC50 was determined as 689 nM and the Emax was 76.8%.

As to `Cc1ccc(Cc2cc(C(=O)NC3C(=O)Nc4ccccc43)nc3ccsc23)cn1` (stereo not drawn) [Compound 68, 7-[(6-methyl-3-pyridyl)methyl]-N-(2-oxoindolin-3-yl)thieno[3,2-b]pyridine-5-carboxamide], where the note is “Table 2, human M1”, the EC50 amounted to 9700 nM and the maximum response (Emax) is 22.8%.

With `Cc1ncc(Cc2cc(C(=O)N[C@@H]3CCOC[C@H]3O)nc3ccsc23)s1` [Compound 137, N-[(3S,4R)-3-hydroxytetrahydropyran-4-yl]-7-[(2-methylthiazol-5-yl)methyl]thieno[3,2-b]pyridine-5-carboxamide], for the setting “Table 2, human M1”, the EC50 stood at 548 nM and the Emax is 80.3%.

For the compound `Cc1ccc(Cc2cc(C(=O)N[C@H]3CCOC3)nc3ccsc23)cn1` [Compound 263, 7-[(6-methyl-3-pyridyl)methyl]-N-[(35)-tetrahydrofuran-3-yl]thieno[3,2-b]pyridine-5-carboxamide], where the note is “Table 2, human M1”, the EC50 is more than 10000 nM and the Emax amounted to 29.3%.

With `Cc1ccc(Cc2cc(C(=O)N[C@@H]3CCCC[C@H]3O)nc3c(C)csc23)cn1` [Compound 103, N-[(1R,2R)-2-hydroxycyclohexyl]-3-methyl-7-[(6-methyl-3-pyridyl)methyl]thieno[3,2-b]pyridine-5-carboxamide], under “Table 2, human M1”, the EC50 turned out to be 233 nM and the maximal effect (Emax) came out at 89.3%.

Consider `Cc1nc(-c2ccc(Cc3cc(C(=O)N[C@@H]4CCC[C@H]4O)nc4ccsc34)cc2)cs1` [Compound 182, N-[(1R,2R)-2-hydroxycyclopentyl]-7-[[4-(2-methylthiazol-4-yl)phenyl]methyl]thieno[3,2-b]pyridine-5-carboxamide], for which, under “Table 2, human M1”, the EC50 is 183 nM and the Emax was determined as 84%.

As to `COC1CC(NC(=O)c2cc(Cc3ccc(-c4cscn4)cc3)c3sccc3n2)C1` (stereo not drawn) [Compound 204, N-(3-methoxycyclobutyl)-7-[(4-thiazol-4-ylphenyl)methyl]thieno[3,2-b]pyridine-5-carboxamide], under “Table 2, human M1”, the EC50 turned out to be 897 nM and the maximal effect (Emax) was 83.5%.

As for `O=C(NC1CCN2CCCC12)c1cc(Cc2ccc(-c3cscn3)cc2)c2sccc2n1` (stereo not drawn) [Compound 220, N-(hexahydro-1H-pyrrolizin-1-yl)-7-[(4-thiazol-4-ylphenyl)methyl]thieno[3,2-b]pyridine-5-carboxamide], where the note is “Table 2, human M1”, the concentration giving a half-maximal response (EC50) turned out to be 1280 nM and the Emax was determined as 80.6%.

With `CO[C@@H]1CCCC[C@H]1NC(=O)c1cc(Cc2ccc(-n3cccn3)cc2)c2scc(C)c2n1` [Compound 119, N-[(1R,2R)-2-methoxycyclohexyl]-3-methyl-7-[(4-pyrazol-1-ylphenyl)methyl]thieno[3,2-b]pyridine-5-carboxamide], where the note is “Table 2, human M1”, the half-maximal effective concentration (EC50) was 2280 nM and the Emax was 83.3%.

In the case of `Cn1ccc(-c2ccc(Cc3cc(C(=O)N[C@@H]4CCCOC4)nc4ccsc34)cn2)n1` [Compound 423], under “Table 2, human M1”, the EC50 turned out to be 637 nM and the Emax came to 70.6%.

Turning to `Cc1ncc(Cc2cc(C(=O)NC34CC5CC(CC(O)(C5)C3)C4)nc3ccsc23)s1` [Compound 141, N-(3-hydroxy-1-adamantyl)-7-[(2-methylthiazol-5-yl]methyl]thieno[3,2-b]pyridine-5-carboxamide], under “Table 2, human M1”, the concentration for a half-maximal effect (EC50) is more than 10000 nM and the Emax was determined as 36.9%.

Consider `Cn1ccc(-c2ccc(Cc3cc(C(=O)N[C@H]4CCOC[C@@H]4O)nc4ccn(C)c34)cc2)n1` [Compound 474, N-[(3R,4S)-3-hydroxytetrahydropyran-4-yl]-1-methyl-7-[[4-(1-methylpyrazol-3-yl)phenyl]methyl]pyrrolo[3,2-b]pyridine-5-carboxamide], for which, where the note is “Table 2, human M1”, the half-maximal effective concentration (EC50) is 6.43 nM and the Emax amounted to 70.4%.

`CCOC(c1ccc(C)nc1)c1cc(C(=O)N[C@@H]2CCCC[C@H]2O)nc2ccsc12` (stereo partly drawn) [Compound 86, 7-[ethoxy-(6-methyl-3-pyridyl)methyl]-N-[(1R,2R)-2-hydroxycyclohexyl]thieno[3,2-b]pyridine-5-carboxamide]: where the note is “Table 2, human M1”, the EC50 amounted to 255 nM and the Emax was determined as 87.7%.

For `Cn1ncc2nc(C(=O)N[C@@H]3CC[C@H]3O)cc(Cc3ccc(-c4cscn4)cc3)c21` [Compound 490, N-[(1R,2R)-2-hydroxycyclobutyl]-1-methyl-7-[(4-thiazol-4-ylphenyl)methyl]pyrazolo-[4,3-b]pyridine-5-carboxamide], where the note is “Table 2, human M1”, the EC50 is more than 10000 nM and the Emax turned out to be 61.9%.

For the compound `Cc1ncc(Cc2cc(C(=O)NC3C4CC5CC3CC(O)(C5)C4)nc3ccsc23)s1` [Compound 142, N-(1S)-5-hydroxy-2-adamantyl]-7-[(2-methylthiazol-5-yl)methyl]thieno[3,2-b]pyridine-5-carboxamide], for the setting “Table 2, human M1”, the concentration giving a half-maximal response (EC50) worked out at 4950 nM and the maximum response (Emax) was determined as 23.9%.

Regarding `Cn1ncc2nc(C(=O)NCC3CCO3)cc(Cc3ccc(-c4cscn4)cc3)c21` (stereo not drawn) [Compound 494, 1-methyl-N-(oxetan-2-ylmethyl)-7-[(4-thiazol-4-ylphenyl)methyl]pyrazolo-[4,3-b]pyridine-5-carboxamide], under “Table 2, human M1”, the EC50 worked out at 5020 nM and the Emax stood at 52.2%.

For the compound `Cc1csc2c(Cc3ccc(-n4cccn4)cc3)cc(C(=O)N[C@@H]3CCOC3)nc12` [Compound 316, 3-methyl-7-[(4-pyrazol-1-ylphenyl)methyl]-N-[(3R)-tetrahydrofuran-3-yl]thieno[3,2-b]pyridine-5-carboxamide], for the setting “Table 2, human M1”, the EC50 was 1090 nM and the maximal effect (Emax) turned out to be 56.5%.

Turning to `CO[C@@H]1CCCC[C@H]1NC(=O)c1cc(Cc2ccc(C)nc2)c2scc(C)c2n1` [Compound 106, N-[(1R,2R)-2-methoxycyclohexyl]-3-methyl-7-[(6-methyl-3-pyridyl)methyl]thieno[3,2-b]pyridine-5-carboxamide], for the setting “Table 2, human M1”, the EC50 amounted to 2200 nM and the Emax worked out at 82.1%.

`O=C(c1cc(Cc2ccc(-n3cccn3)cc2)c2sccc2n1)N1[C@@H]2CC[C@H]1CC(O)C2` (stereo partly drawn) [Compound 80, [(1S,5R)-3-hydroxy-8-azabicyclop[3.2.1]octan-8-yl]-[7-[(4-pyrazol-1-ylphenyl)methyl]thieno[3,2-b]pyridin-5-yl]methanone]: the Emax worked out at 65.9%. The EC50 (Table 2, human M1) is more than 10000 nM.

For `O=C(N[C@H]1CCC[C@@H]1O)c1cc(Cc2ccc(-c3cscn3)cc2)c2sccc2n1` [Compound 206, N-[(1S,2S)-2-hydroxycyclopentyl]-7-[(4-thiazol-4-ylphenyl)methyl]thieno[3,2-b]pyridine-5-carboxamide], where the note is “Table 2, human M1”, the EC50 was found to be 38.8 nM and the Emax amounted to 87%.

Regarding `N#CC1(NC(=O)c2cc(Cc3ccc(-n4cccn4)cc3)c3sccc3n2)CC1` [Compound 282, N-(1-cyanocyclopropyl)-7-[(4-pyrazol-1-ylphenyl)methyl]thieno[3,2-b]pyridine-5-carboxamide], under “Table 2, human M1”, the EC50 came out at 601 nM and the Emax was 40%.

Regarding `O=C(N[C@@H]1CC[C@H]1O)c1cc(Cc2ccc(-n3cccn3)cc2)c2sccc2n1` [Compound 227, N-[(1R,2R)-2-hydroxycyclobutyl]-7-[(4-pyrazol-1-ylphenyl)methyl]thieno[3,2-b]pyridine-5-carboxamide], where the note is “Table 2, human M1”, the concentration giving a half-maximal response (EC50) is 125 nM and the Emax came to 79.8%.

Take `Cn1ncc2nc(C(=O)N[C@H]3CCCC[C@@H]3O)cc(Cc3ccc(-n4cccn4)cc3)c21` [Compound 498, N-[(1S,2S)-2-hydroxycyclohexyl]-1-methyl-7-[(4-pyrazol-1-ylphenyl)methyl]pyrazolo-[4,3-b]pyridine-5-carboxamide]: where the note is “Table 2, human M1”, the EC50 was 428 nM and the Emax is 67.3%.

Broadly, the EC50 is the midpoint of the concentration-response curve. What is called Emax is the greatest response seen or fitted, relative to the assay's reference.

Source of the values: patent US11111251B2, “Positive allosteric modulators of the muscarinic acetylcholine receptor M1” (Vanderbilt University, priority 2016, dated 2021).
